# Article PMC12045974, “T cell toxicity induced by tigecycline binding to the mitochondrial ribosome” (Nature Communications, 2025)
# Values joined by “and” are separate entries in the source; they are usually repeats but may differ in a detail not shown here. Equal values may be shown once.
# Legend:
# [1] = tested on: 55S mitochondrial ribosomes (mitoribosomes) from Jurkat T cells; assay: Single-particle cryo-EM of mitoribosome-tigecycline complex; assay type: binding, human; conditions: 30 µM
# Protocol: Jurkat T cells were grown in RPM1-1640 medium ( + 10% FBS, 2.05 mM L-glutamine (Sigma), and 55 μM 2-ME (Gibco)) in a vented flask shaking at 120 rpm at 37 °C under 5% CO2. The culture was scaled up by splitting at a cell density of 1.6 × 10^6 cells/ml. A final volume of 1.5-liter cells at a density of 1 × 10^6 cells/ml was harvested by centrifugation at 1000 x g for 10 min at 4 °C. After being washed with cold PBS buffer, the cell pellet was resuspended in the cold hypotonic MSE buffer (with 0.6 M mannitol, 10 mM Tris–HCl pH 7.4, 1 mM EDTA, 0.1% BSA), and ruptured on ice by a semi-automatic homogenizer (Schuett-biotech). The lysate was clarified by centrifugation at 400 x g and 4 °C for 10 min. The pellet was resuspended and subsequently homogenized. After 3 cycles of homogenization-centrifugation, the cell lysates were combined and the mitochondria were pelleted by additional centrifugation at 11,000 x g and 4 °C for 10 min. […]
# The purified mitochondria were thawed and lysed by incubating at 4 °C for 30 min in the lysis buffer (25 mM HEPES–KOH pH 7.5, 20 mM Mg(OAc)2, 50 mM KCl, 2% (vol/vol) Triton X-100, 2 mM Dithiothreitol (DTT), 1× cOmplete EDTA-free protease inhibitor cocktail (Roche), 40 U/μl RNase inhibitor (Invitrogen)). […] The concentration of the purified monosomes was quantified by nanodrop. […]
# CD4+ and CD8+ T cells = assay: Mitochondrial mass by MitoTracker Green staining; assay type: cell-based, human; conditions: for mitochondrial mass (MitoTracker Green): 10 μM, after 24 h or 7 days of treatment
# Protocol: After thawing frozen PBMCs, cells were washed with RPMI complemented with 10% FBS, 2.05 mM L-glutamine (Sigma), and 55 μM 2-ME (Gibco) and rested at 37 °C (5% CO2) for 30 min. 250,000 cells per well were seeded in 96-well U-bottom plates with/without Human T-Activator CD3/CD28 beads (Invitrogen) at a 1:1 ratio and 10 ng/ml IL-2 (Proteintech) in RPMI-1640 medium mentioned above. At the same time, antibiotics were added. For the short-term activation assay, cells were harvested 18 h post-stimulation and stained with Aqua fixable live/dead dye (Invitrogen) and surface markers. For the proliferation assays, cells were stained with CFSE (eBioscience) or Cell Trace Violet (ThermoFisher Scientific) dyes before seeding and stimulation, according to the manufacturer’s recommendations. For TCR priming experiments, tigecycline was added at 0, 24 or 72 h post-activation. For mitochondrial mass measuring, cells were stained with Mitotracker Green Fm Dye (Thermo Fisher Scientific) after incubation with Tigecycline. After incubation for 6 days with a half medium (complete, with antibiotics and IL-2) change after 3 days, cells were harvested via centrifugation, and stained with live/dead dye and surface markers for analysis by flow cytometry. The Foxp3/Transcription Factor Staining Buffer Set (Invitrogen) was used to fix cells according to the manufacturer’s instructions. The FACS gating strategy is shown in Supplementary Fig. 2D. Flow cytometry was carried out on a BD Celesta (BD Biosciences) and analyzed in FlowJo (TreeStar) software.
compound,measurement,setting,value
"CN(C)c1cc(NC(=O)CNC(C)(C)C)c(O)c2c1C[C@H]1C[C@H]3[C@H](N(C)C)C(O)=C(C(N)=O)C(=O)[C@@]3(O)C(O)=C1C2=O [Tigecycline, tigecycline]",occupancy on the mitoribosome,"[1]; mtSSU and mtLSU site-1, P-site-only class",exceeding 80%
same,binding sites on the mitoribosome,"[1]; one on the mtSSU, two on the mtLSU",three densities corresponding to tigecycline molecules
same,mitochondrial mass (MitoTracker Green),CD4+ and CD8+ T cells,no significant changes in mitochondrial mass
same,mitochondrial mass (MitoTracker Green),CD4+ and CD8+ T cells; listed as tigecyline,comparable mitochondrial mass
same,"mitochondrial mass relative to Unstim (=1), sheet sFig-1E+F","CD4+ and CD8+ T cells; 24H, CD4, Stim-10µM, per PBMC donor",1.522 and 1.33 and 0.8198
same,"mitochondrial mass relative to Unstim (=1), sheet sFig-1E+F","CD4+ and CD8+ T cells; 24H, CD4, Unstim-10µM, per PBMC donor",1.004 and 0.6673 and 1.041
same,"mitochondrial mass relative to Unstim (=1), sheet sFig-1E+F","CD4+ and CD8+ T cells; 24H, CD8, Unstim-10µM, per PBMC donor",0.5804 and 1.017 and 1.063
same,"mitochondrial mass relative to Unstim (=1), sheet sFig-1E+F","CD4+ and CD8+ T cells; 7 days, CD4, STI 24H, per PBMC donor",2.7235 and 3.361 and 2.725
same,"mitochondrial mass relative to Unstim (=1), sheet sFig-1E+F","CD4+ and CD8+ T cells; 7 days, CD4, STI 72H, per PBMC donor",2.708 and 3.517 and 2.769
same,"mitochondrial mass relative to Unstim (=1), sheet sFig-1E+F","CD4+ and CD8+ T cells; 7 days, CD4, Stim-10µM, per PBMC donor",2.414 and 2.323 and 2.6393
same,"mitochondrial mass relative to NO STI (=1), sheet sFig-1E+F","CD4+ and CD8+ T cells; 7 days, CD8, STI-10µM, per PBMC donor",1.791 and 3.1924 and 2.433
